The record followed here is patent US9249125B2, “Pyrazole derivatives as p38 MAP inhibitors” (RESPIVERT LIMITED, priority 2012, dated 2016).

For data set [1], the system named is LPS-induced TNFα release in d-U937 cells. The data set can be described thus: LPS-induced TNFα release in d-U937 cells. Particulars: Homo sapiens, dU937, relative to 10 μg/mL BIRB796, read-out: LPS Induced Release of Cytokine in d-937 Cells TNFα REC50. The data set is classed as cell-based. The procedure, abridged:
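Read-out: TNFα and IL-8 released into supernatant, sandwich ELISA, expressed as inhibition versus vehicle at each dose and fitted to give REC50. Cells were PMA-differentiated U937 (100 ng/mL, 48–72 hr), compound-exposed 2 hr before a 4 hr LPS stimulus (0.1 μg/mL).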

In data set [2] the test system is LPS-induced IL-8 release in d-U937 cells. Put plainly: LPS-induced IL-8 release in d-U937 cells. The data set is classed as cell-based. Particulars: Homo sapiens, dU937, read-out: LPS Induced Release of Cytokine in d-937 Cells IL-8 IC50. The procedure, abridged:
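PMA-differentiated (100 ng/mL, 48–72 hr) U937 cells pre-incubated with compound 2 hr, then stimulated with LPS (0.1 μg/mL, E. coli O111:B4) for 4 hr. Supernatant TNFα and IL-8 measured by sandwich ELISA; inhibition versus vehicle control, REC50 from concentration-response curve.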

For the next data set, the system named is d-U937 cells. The data set can be described thus: Cell viability: MTT assay. The data set is classed as cell-based, human. Particulars: 1 μg/mL. The procedure, abridged: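 Differentiated U937 cells were exposed to compound at 1 or 10 μg/mL either 4 h in 5% FCS RPMI1640 or 24 h in 10% FCS RPMI1640, then given MTT for 1 h, DMSO-solubilised and read at 550 nm. Percent viability loss versus 0.5% DMSO vehicle; apparent gains appear negative.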

In a further data set the target is Syk (Homo sapiens (Human), UniProt P43405). The data set can be described thus: Syk enzyme inhibition (FRET, Z-LYTE). The data set is classed as biochemical. The procedure, abridged:
(§1)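 Z-LYTE FRET kinase assay: enzyme (3000 or 2000 ng/mL stock, respectively) preincubated 2 h at RT with compound (4–0.004 μg/mL stocks), then FRET peptide plus ATP (800 μM stock for c-Src, 60 μM for Syk) added for 1 h. Protease development 1 h; phosphorylation from coumarin/fluorescein emission ratio.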

The next data set has as its target GSK3α (Homo sapiens (Human), UniProt P49840). The data set can be described thus: GSK 3α enzyme inhibition (FRET, Z-LYTE). Format: biochemical. The procedure, abridged: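 GSK3α (500 ng/mL stock) was preincubated 2 hr at RT with compound (4 to 0.004 μg/mL stocks), then FRET peptide (8 μM stock) and ATP (40 μM stock) added for 1 hr. Protease development for 1 hr cleaved unphosphorylated peptide; coumarin/fluorescein emission ratio reported phosphorylation.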

Data set [3] has as its system Poly I:C-induced ICAM-1 expression in BEAS2B cells. The data set can be described thus: Poly I:C-induced ICAM-1 expression in BEAS2B cells. The data set is classed as cell-based. Particulars: Homo sapiens, BEAS-2B, read-out: Poly IC induced ICAM1 in BEAS2B IC50. The procedure, abridged: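 BEAS2B human bronchial epithelial cells pre-incubated with compound for 2 hr, then transfected with 1 μg/mL poly I:C plus Oligofectamine. At 18 hr, surface ICAM-1 measured by cell-based ELISA (HRP, OD450–655). Signal corrected for cell number by crystal violet OD595.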

Data set [4] has as its system LPS-induced airways neutrophilia in mice. The data set can be described thus: LPS-induced neutrophil accumulation in mice. The data set is classed as in vivo. The settings on record: Test Substance at 0.2 mg/mL, intra tracheal, dosed 8 hr pre-LPS challenge. How it is done: Non-fasted Balb/c mice are dosed by the intra tracheal route with either vehicle, or the test substance at the indicated times (within the range 2-8 hr) before stimulation of the inflammatory response by application of an LPS challenge. At T=0, mice are placed into an exposure chamber and exposed to LPS (7.0 mL, 0.5 mg/mL solution in PBS) for 30 min). After a further 8 hr the animals are anesthetized, their tracheas cannulated and BALF extracted by infusing and then withdrawing from their lungs 1.0 mL of PBS via the tracheal catheter. Total and differential white cell counts in the BALF samples are measured using a Neubaur haemocytometer. Cytospin smears of the BALF samples are prepared by centrifugation at 200 rpm for 5 min at RT and stained using a DiffQuik stain system (Dade Behring). Cells are counted using oil immersion microscopy. Data for neutrophil numbers in BAL are shown as mean±S.E.M. (standard error of the mean). The percentage inhibition of neutrophil accumulation is calculated for each treatment relative to vehicle treatment.

For another data set, the target named is p38 MAPKα (Homo sapiens (Human), UniProt Q16539). The data set can be described thus: p38 MAPKα enzyme inhibition (FRET, Z-LYTE). Format: biochemical.
The next data set deals with cSrc (Homo sapiens (Human), UniProt P12931). The data set can be described thus: c-Src enzyme inhibition (FRET, Z-LYTE). The data set is classed as biochemical. The procedure, abridged: as §1

Some results are limits rather than exact numbers.

Chain of cSrc (P12931 whole entry, looked up): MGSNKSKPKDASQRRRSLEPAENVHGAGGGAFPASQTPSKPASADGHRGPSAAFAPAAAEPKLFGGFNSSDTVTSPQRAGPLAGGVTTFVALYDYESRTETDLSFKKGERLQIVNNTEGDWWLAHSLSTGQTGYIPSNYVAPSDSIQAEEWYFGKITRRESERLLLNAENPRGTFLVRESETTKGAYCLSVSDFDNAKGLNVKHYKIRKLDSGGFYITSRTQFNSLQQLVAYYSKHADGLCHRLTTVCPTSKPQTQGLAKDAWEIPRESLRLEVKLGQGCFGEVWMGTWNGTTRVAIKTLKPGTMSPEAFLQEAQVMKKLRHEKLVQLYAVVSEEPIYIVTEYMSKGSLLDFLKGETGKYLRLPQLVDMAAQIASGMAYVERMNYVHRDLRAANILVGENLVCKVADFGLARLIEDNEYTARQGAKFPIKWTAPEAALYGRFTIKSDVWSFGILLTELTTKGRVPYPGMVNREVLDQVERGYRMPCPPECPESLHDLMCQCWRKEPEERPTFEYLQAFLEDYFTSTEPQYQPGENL
Chain of p38 MAPKα (Q16539 whole entry): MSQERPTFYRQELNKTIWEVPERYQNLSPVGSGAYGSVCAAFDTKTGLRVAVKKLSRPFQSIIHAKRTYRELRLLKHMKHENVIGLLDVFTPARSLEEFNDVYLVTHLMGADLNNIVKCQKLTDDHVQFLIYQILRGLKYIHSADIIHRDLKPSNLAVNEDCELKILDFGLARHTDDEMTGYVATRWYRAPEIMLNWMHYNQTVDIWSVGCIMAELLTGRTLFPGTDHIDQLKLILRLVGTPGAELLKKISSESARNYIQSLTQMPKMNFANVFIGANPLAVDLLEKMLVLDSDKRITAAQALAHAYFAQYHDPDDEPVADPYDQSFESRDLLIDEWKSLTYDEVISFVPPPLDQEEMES
Chain of GSK3α (P49840 whole entry): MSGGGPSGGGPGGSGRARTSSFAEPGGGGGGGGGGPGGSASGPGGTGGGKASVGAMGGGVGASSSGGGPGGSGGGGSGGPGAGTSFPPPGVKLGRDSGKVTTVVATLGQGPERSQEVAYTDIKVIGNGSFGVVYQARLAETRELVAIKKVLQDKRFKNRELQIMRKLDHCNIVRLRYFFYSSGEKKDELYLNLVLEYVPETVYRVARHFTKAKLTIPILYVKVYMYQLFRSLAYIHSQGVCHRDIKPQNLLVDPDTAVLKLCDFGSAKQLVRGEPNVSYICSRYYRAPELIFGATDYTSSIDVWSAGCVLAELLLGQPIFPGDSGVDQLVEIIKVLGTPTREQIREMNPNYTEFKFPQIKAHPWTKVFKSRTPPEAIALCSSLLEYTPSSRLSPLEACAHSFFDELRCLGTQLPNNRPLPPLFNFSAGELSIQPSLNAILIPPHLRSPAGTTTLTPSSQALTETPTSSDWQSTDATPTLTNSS

For `COc1ccc(-n2nc(C(C)(C)C)cc2NC(=O)Nc2ccc(Oc3ccnc(Nc4cc(C)c5[nH]ncc5c4)n3)c3ccccc23)cc1` [Example 42, 1-(3-(tert-butyl)-1-(4-methoxyphenyl)-1H-pyrazol-5-yl)-3-(4-((2-((7-methyl-1H-indazol-5-yl)amino)pyrimidin-4-yl)oxy)naphthalen-1-yl)urea], in data set [1], the EC50 was found to be 0.0017 µM. Moreover, the half-maximal inhibitory concentration (IC50) in data set [2] was 0.0014 µM; on Syk, 0.005 µM; at GSK3α, above 1.53 µM; in [3] it was 0.0014 µM; against p38 MAPKα it was 0.067 µM; against cSrc it was 0.005 µM. For the same compound, in the data set with d-U937 cells, the “MTT Assay Cell viability at time point in d-U937 cells 4 h” value was “−ve (−ve and +ve indicate that the value is below and above respectively, the no significant effect threshold, defined as 30% inhibition at 1 μg/mL at the time point indicated.)”. For the same compound, the “MTT Assay Cell viability at time point in d-U937 cells 24 h” value with d-U937 cells was “+ve (−ve and +ve indicate that the value is below and above respectively, the no significant effect threshold, defined as 30% inhibition at 1 μg/mL at the time point indicated.)”. For the same compound, the “% Inhibition of neutrophil accumulation in BAL” value in data set [4] stood at 50%. In data set [4], the “Neutrophil numbers in BAL (+/−SEM)” value is on record as 8.5 ± 1.5 ×10^5/mL.
For `CC(C)c1cc(NC(=O)Nc2ccc(Oc3cc(Nc4ccc5[nH]ncc5c4)ncn3)c3ccccc23)n(-c2ccc(=O)n(CCO)c2)n1` [Example 84, 1-(4-((6-((1H-indazol-5-yl)amino)pyrimidin-4-yl)oxy)naphthalen-1-yl)-3-(1-(1-(2-hydroxyethyl)-6-oxo-1,6-dihydropyridin-3-yl)-3-isopropyl-1H-pyrazol-5-yl)urea], in [1], the EC50 amounted to 0.147 µM. The half-maximal inhibitory concentration (IC50) was 0.217 µM in data set [2]; 0.012 µM against Syk; 0.278 µM at GSK3α; above 0.152 µM in data set [3]; below 0.0015 µM on p38 MAPKα; 0.003 µM against cSrc. Also, the “MTT Assay Cell viability at time point in d-U937 cells 4 h” value in the data set on d-U937 cells was “−ve (−ve and +ve indicate that the value is below and above respectively, the no significant effect threshold, defined as 30% inhibition at 1 μg/mL at the time point indicated.)”. The “MTT Assay Cell viability at time point in d-U937 cells 24 h” value in the data set with d-U937 cells was “−ve (−ve and +ve indicate that the value is below and above respectively, the no significant effect threshold, defined as 30% inhibition at 1 μg/mL at the time point indicated.)”.
Turning to `CC(C)(C)c1cc(NC(=O)Nc2ccc(Oc3ccnc(Nc4ccc5c(c4)OCO5)n3)c3ccccc23)n(-c2ccc(OCCN3CCOCC3)cc2)n1` [Example 65, 1-(4-((2-(benzo[d][1,3]dioxol-5-ylamino)pyrimidin-4-yl)oxy)naphthalen-1-yl)-3-(3-(tert-butyl)-1-(4-(2-morpholinoethoxy)phenyl)-1H-pyrazol-5-yl)urea], in data set [1], the EC50 was determined as 0.0053 µM. The IC50 in data set [2] came to 0.0209 µM; against Syk, 0.141 µM; on GSK3α it was 2.84 µM; in data set [3], 0.0067 µM; on p38 MAPKα, 0.239 µM; against cSrc, 0.023 µM. Also, the “MTT Assay Cell viability at time point in d-U937 cells 4 h” value in the data set on d-U937 cells is “−ve (−ve and +ve indicate that the value is below and above respectively, the no significant effect threshold, defined as 30% inhibition at 1 μg/mL at the time point indicated.)”. Moreover, the “MTT Assay Cell viability at time point in d-U937 cells 24 h” value in the data set on d-U937 cells was “−ve (−ve and +ve indicate that the value is below and above respectively, the no significant effect threshold, defined as 30% inhibition at 1 μg/mL at the time point indicated.)”.
As for `COc1ccc(-n2nc(C(C)(C)C)cc2NC(=O)Nc2ccc(Oc3ccnc(Nc4ccc5[nH]ccc5c4)n3)c3ccccc23)cn1` [Example 82, 1-(4-((2-((1H-indol-5-yl)amino)pyrimidin-4-yl)oxy)naphthalen-1-yl)-3-(3-(tert-butyl)-1-(6-methoxypyridin-3-yl)-1H-pyrazol-5-yl)urea], in data set [1], the EC50 was 0.0018 µM. For the same compound, the IC50 in [2] was 0.0024 µM; on Syk, 0.026 µM; against GSK3α, above 1.56 µM; in [3], 0.0027 µM; against p38 MAPKα, 0.063 µM; against cSrc it was 0.01 µM. In the data set with d-U937 cells, the “MTT Assay Cell viability at time point in d-U937 cells 4 h” value is “−ve (−ve and +ve indicate that the value is below and above respectively, the no significant effect threshold, defined as 30% inhibition at 1 μg/mL at the time point indicated.)”. In addition, the “MTT Assay Cell viability at time point in d-U937 cells 24 h” value with d-U937 cells is “−ve (−ve and +ve indicate that the value is below and above respectively, the no significant effect threshold, defined as 30% inhibition at 1 μg/mL at the time point indicated.)”.
In the case of `CC(C)(C)c1cc(NC(=O)Nc2ccc(Oc3ccnc(Nc4ccc5[nH]c(=O)oc5c4)n3)c3ccccc23)n(-c2ccc(OCCN3CCOCC3)cc2)n1` [Example 77, 1-(3-(tert-butyl)-1-(4-(2-morpholinoethoxy)phenyl)-1H-pyrazol-5-yl)-3-(4-((2-((2-oxo-2,3-dihydrobenzo[d]oxazol-6-yl)amino)pyrimidin-4-yl)oxy)naphthalen-1-yl)urea], in data set [1], the EC50 was determined as 0.0035 µM. In addition, the IC50 in data set [2] is 0.0031 µM; against Syk, 0.093 µM; at GSK3α, 2.29 µM; in data set [3], 0.0086 µM; against p38 MAPKα, 0.417 µM; against cSrc, 0.027 µM. Besides, the “MTT Assay Cell viability at time point in d-U937 cells 4 h” value with d-U937 cells is “−ve (−ve and +ve indicate that the value is below and above respectively, the no significant effect threshold, defined as 30% inhibition at 1 μg/mL at the time point indicated.)”. In addition, in the data set on d-U937 cells, the “MTT Assay Cell viability at time point in d-U937 cells 24 h” value is “−ve (−ve and +ve indicate that the value is below and above respectively, the no significant effect threshold, defined as 30% inhibition at 1 μg/mL at the time point indicated.)”.
`Cc1ccc(-n2nc(C(C)(C)C)cc2NC(=O)Nc2ccc(Oc3ccnc(Nc4ccc5c(cnn5C)c4)n3)c3ccccc23)cc1` [Example 26, 1-(3-(tert-butyl)-1-(p-tolyl)-1H-pyrazol-5-yl)-3-(4-((2-((1-methyl-1H-indazol-5-yl)amino)pyrimidin-4-yl)oxy)naphthalen-1-yl)urea]: in data set [1], the EC50 was 0.0022 µM. Besides, the IC50 in data set [2] was 0.0022 µM; on Syk, 0.18 µM; against GSK3α it was above 15.7 µM; in data set [3], 0.0023 µM; against p38 MAPKα, 0.145 µM; at cSrc it was 0.012 µM. Further, in the data set with d-U937 cells, the “MTT Assay Cell viability at time point in d-U937 cells 4 h” value was “−ve (−ve and +ve indicate that the value is below and above respectively, the no significant effect threshold, defined as 30% inhibition at 1 μg/mL at the time point indicated.)”. For the same compound, in the data set with d-U937 cells, the “MTT Assay Cell viability at time point in d-U937 cells 24 h” value was “−ve (−ve and +ve indicate that the value is below and above respectively, the no significant effect threshold, defined as 30% inhibition at 1 μg/mL at the time point indicated.)”.
For the compound `COc1ccc(-n2nc(C(C)(C)C)cc2NC(=O)Nc2ccc(Oc3ccnc(Nc4ccc5[nH]nc(C(=O)N6CCOCC6)c5c4)n3)c3ccccc23)cn1` [Example 83, 1-(3-(tert-butyl)-1-(6-methoxypyridin-3-yl)-1H-pyrazol-5-yl)-3-(4-((2-((3-(morpholine-4-carbonyl)-1H-indazol-5-yl)amino)pyrimidin-4-yl)oxy)naphthalen-1-yl)urea], the EC50 in data set [1] was found to be 0.0007 µM. For the same compound, the IC50 came out at 0.0087 µM in data set [2]; 0.063 µM against Syk; 3.78 µM against GSK3α; 0.0029 µM in data set [3]; 0.01 µM on p38 MAPKα; 0.107 µM at cSrc. Also, in the data set on d-U937 cells, the “MTT Assay Cell viability at time point in d-U937 cells 4 h” value was “−ve (−ve and +ve indicate that the value is below and above respectively, the no significant effect threshold, defined as 30% inhibition at 1 μg/mL at the time point indicated.)”. The “MTT Assay Cell viability at time point in d-U937 cells 24 h” value in the data set on d-U937 cells was “−ve (−ve and +ve indicate that the value is below and above respectively, the no significant effect threshold, defined as 30% inhibition at 1 μg/mL at the time point indicated.)”.
